Consider 6 molecules from patent US20140328847A1, “MITIGATION OF DISEASE BY INHIBITION OF GALECTIN-12” (The Regents of the University of California, priority 2011, published 2014).

Assay [1] has as its system adipocytes from Lgals12^+/+ and Lgals12^−/− mice. As to the kind of experiment: Lipolysis assay in primary adipocytes from Lgals12+/+ and Lgals12−/− mice (glycerol release). The class given is cell-based, mouse. The following applies: for lipolysis (glycerol release): 1 h, 37° C.; for cAMP/dbcAMP-stimulated lipolysis: in the presence of adenylyl cyclase inhibitor SQ 22536, FIG. 9G. As for the experimental part:
(A) Adipocytes from the epididymal fat depots of Lgals12^+/+ and Lgals12^-/- mice were incubated with indicated concentrations of isoproterenol before being separated into cytosol and fat cake. Lipolytic proteins in each fraction were analyzed by Western blotting with indicated antibodies. (B) Quantification of lipid droplet (LD)-associated p-HSL and HSL by densitometry of Western blots (n=3 for each genotype). […] (D) Quantification of LD-associated ATGL by densitometry of Western blots (n=3 for each genotype). […] Asterisks denote statistical significance (p<0.05). Results are representative of three experiments. FIGS. 10A-C illustrate (A) Adipocytes from Lgals12^+/+ and -/- mice (n=3) were incubated with 1 U/ml ADA and increasing concentrations of PIA for 1 h at 37° C. and glycerol release was measured. Results were expressed as both absolute values and as % of glycerol release in the absence of PIA. (B) Adipocytes from Lgals12+/+ and Lgals12^-/- mice (n=3 each) were incubated with or without 10 μM cilostamide (Cilo) or 25 μM rolipram (Roli), individually or in combination, for 2 h at 37° C. Lipolysis was determined by measuring glycerol release. (C) Insulin suppression of lipolysis in adipocytes stimulated with 20 nM isoproterenol (% of maximal release in the absence of insulin). Asterisks denote statistical significance (p<0.05). Similar results were obtained in three experiments. Adipocytes were isolated from gonadal fat depots in Krebs-Ringer HEPES (KRH) buffer by collagenase digestion and floatation ([…] Lipid Res 47:1859-1864). After the final wash, cell density and triglyceride content of the adipocyte suspension were determined as described (Fine […] (1997) Int J Obes Relat Metab Disord 21:764-768.). We monitored lipolysis in adipocytes isolated from random-fed Lgals12^+/+ and Lgals12^-/- mice on regular diet, by measuring fatty acid and glycerol release, as described ([…] Lipid Res 47:1859-1864), with minor modifications. Briefly, 2.5×10^5 cells were incubated in 0.3 ml KRH/3% FAA-free BSA (for basal lipolysis), or KRH/3% FAA-free BSA containing indicated concentrations of lipolysis stimulators or inhibitors (Sigma) for 0-2 h at 37° C. with shaking at 150 rpm. At the end of the incubation, glycerol and NEFA released into the infranatant was determined with the Free Glycerol Reagent (Sigma) and the Nonesterified Fatty Acids Kit ([…]), respectively.

Assay [2] concerns the target T1, galectin-12 (Mus musculus, UniProt Q91VD1).
T1 construct: from tissue; host or cells: primary mouse adipocytes from epididymal fat depot
T1 sequence (Q91VD1 1-314): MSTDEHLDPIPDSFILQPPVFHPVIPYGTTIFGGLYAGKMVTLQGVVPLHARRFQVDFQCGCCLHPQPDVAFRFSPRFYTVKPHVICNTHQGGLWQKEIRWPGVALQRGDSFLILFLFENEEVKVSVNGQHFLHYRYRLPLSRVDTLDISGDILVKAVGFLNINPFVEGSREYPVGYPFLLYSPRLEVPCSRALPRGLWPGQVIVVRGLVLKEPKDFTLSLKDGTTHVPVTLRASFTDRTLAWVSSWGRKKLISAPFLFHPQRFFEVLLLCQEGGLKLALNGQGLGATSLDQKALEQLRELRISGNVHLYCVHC
As to the kind of experiment: Binding of galectin-12 from mouse adipocyte lysates to fetuin-agarose (Western blotting). The following applies: lactose 25 mM; mouse epididymal adipocyte lysates; FIG. 5A. How it is done:
(§1) FIGS. 5A-B illustrate association of galectin-12 with lipid droplets is not inhibited by lactose. (A) Mouse adipocytes from epididymal fat depot were lyzed and the lysates were incubated with fetuin-agarose, in the absence (−) or presence (+) of 25 mM lactose. Bound proteins were eluted with SDS-sample buffer and galectin-12 was detected by Western blotting. (B) Lipd droplets were purified from mouse adipocyte homogenates in the absence (−) or presence (+) of 25 mM lactose. Galectin-12 was detected as in (A).
(§2) To test whether galectin-12 association with lipid droplets is glycan-dependent, we also purified lipid droplets in the presence of lactose.
Background: A western blot detects proteins with antibodies after separation by electrophoresis.

Assay [3] addresses T1, galectin-12. As to the kind of experiment: Association of galectin-12 with lipid droplets purified from mouse adipocyte homogenates. The settings on record: lactose 25 mM present during lipid droplet purification; FIG. 5B. As for the experimental part: as §1, §2

For the molecule `CC(Cc1ccccc1)Nc1ncnc2c1ncn2[C@@H]1O[C@H](CO)[C@@H](O)[C@H]1O` (single isomer, unassigned; (-)) [PIA, (−)-N6-(2-Phenylisopropyl)adenosine], the “lipolysis (glycerol release)” value in assay [1] (increasing concentrations of PIA with 1 U/ml ADA, FIG. 10A) is recorded as “suppressed lipolysis in both genotypes with similar efficiencies”.

As to `CC(C)Cn1c(=O)n(C)c(=O)c2[nH]cnc21` [IBMX, 3-isobutyl-1-methylxanthine], the “lipolysis (glycerol release)” value in assay [1] (0.1 mM IBMX, both Lgals12+/+ and Lgals12−/− adipocytes, FIG. 9F) is listed as “greatly enhanced”.

For the molecule `OC[C@H]1O[C@@H](O[C@H]2[C@H](O)[C@@H](O)C(O)O[C@@H]2CO)[C@H](O)[C@@H](O)[C@H]1O` (stereo partly shown) [Lactose], the “binding of galectin-12 to fetuin-agarose” value at galectin-12 [2] was “completely inhibited”. Besides, the “galectin-12 association with lipid droplets” value on galectin-12 [3] is “did not affect”.

Regarding `Nc1ncnc2c1ncn2[C@@H]1O[C@@H]2COP(=O)(O)O[C@H]2[C@H]1O` [cAMP, cyclic adenosine monophosphate], in assay [1], the cAMP/dbcAMP-stimulated lipolysis entry is reported as “stimulated greater lipolysis in Lgals12^−/− adipocytes than in Lgals12^+/+ adipocytes”.

Regarding `CCCC(=O)Nc1ncnc2c1ncn2[C@@H]1O[C@@H]2COP(=O)(O)O[C@H]2[C@H]1OC(=O)CCC` [dbcAMP, dibutyryl cAMP], the cAMP/dbcAMP-stimulated lipolysis entry in assay [1] is “induced comparable lipolysis in adipocytes of the two genotypes”.

Turning to insulin, the “insulin suppression of lipolysis” value in assay [1] (Lgals12−/− adipocytes stimulated with 20 nM isoproterenol, FIG. 10C) was “remained sensitive”.
